# System: Rhizoctonia solani
# Assay: Fungicidal activity against Rhizoctonia solani infected Oryza sativa var. Nipponbare assessed per 10 […] applied by submerged-treatment 7 days prior to infection measured after 5 days
# Type: functional
row,Structure (SMILES),MED
1,C[Si](C)(C)CC(O)(Cn1cncn1)c1ccc(C(F)(F)F)cc1 (stereo unspecified),100 g
2,CCC(n1cncn1)C(O)(C[Si](C)(C)C)c1ccc(F)cc1 (stereo unspecified),>100 g
3,CC(C)Oc1cccc(NC(=O)c2ccccc2C(F)(F)F)c1 [FLUTOLANIL],>100 g
4,COc1ccc(C(O)(Cn2cncn2)C[Si](C)(C)C)cc1 (stereo unspecified),>100 g
5,Cc1ccc(C(O)(Cn2cncn2)C[Si](C)(C)C)cc1 (stereo unspecified),>100 g
6,C[Si](C)(C)CC(O)(Cn1ccnn1)c1ccc(F)cc1 (stereo unspecified),>100 g
7,C[Si](C)(C)CC(O)(Cn1cncn1)c1ccccc1 (stereo unspecified),50 g
8,CC(n1cncn1)C(O)(C[Si](C)(C)C)c1ccc(F)cc1 (stereo unspecified),50 g
9,C[Si](C)(C)CC(O)(Cn1cnnc1)c1ccc(F)cc1 (stereo unspecified),>100 g
10,CCC(C(O)(Cn1cncn1)c1ccc(F)cc1)[Si](C)(C)C (stereo unspecified),50 g
11,C[Si](C)(C)CC(O)(Cn1cncn1)c1ccc(F)cc1 (stereo unspecified) [SIMECONAZOLE],12.5 g
12,C[Si](C)(C)CC(O)(Cn1cncn1)c1ccc(Cl)cc1 (stereo unspecified),25 g
13,C[Si](C)(C)CCC(O)(Cn1cncn1)c1ccc(F)cc1 (stereo unspecified),>100 g
14,C[Si](C)(C)CC(O)(Cn1ccnc1)c1ccc(F)cc1 (stereo unspecified),>100 g
15,C=CC(C(O)(Cn1cncn1)c1ccc(Cl)cc1)[Si](C)(C)C (stereo unspecified),>100 g
16,C[Si](C)(C)C#CC(O)(Cn1cncn1)c1ccc(Cl)cc1Cl (stereo unspecified),>100 g
17,CCCCC(O)(Cn1cncn1)c1ccc(Cl)cc1Cl (stereo unspecified) [HEXACONAZOLE],50 g
18,C[Si](C)(C)CC(O)(Cn1nccn1)c1ccc(F)cc1 (stereo unspecified),>100 g
19,C[Si](C)(C)CC(O)(Cn1cncn1)c1ccc(Cl)cc1F (stereo unspecified),50 g
20,C[Si](C)(C)CC(O)(Cn1cncn1)c1ccc(F)cc1F (stereo unspecified),100 g
21,CC(C)(n1cncn1)C(O)(C[Si](C)(C)C)c1ccc(F)cc1 (stereo unspecified),>100 g
22,C[Si](C)(C)CC(O)(Cn1cncn1)c1ccc(Br)cc1 (stereo unspecified),>100 g
23,C=CC(C(O)(Cn1cncn1)c1ccc(F)cc1)[Si](C)(C)C (stereo unspecified),100 g
24,C[Si](C)(C)CC(O)(Cn1cncn1)c1cccc(F)c1 (stereo unspecified),50 g
25,C[Si](C)(C)CC(O)(Cn1cncn1)c1ccccc1F (stereo unspecified),100 g
26,C[Si](C)(C)CC(O)(Cn1cncn1)c1ccc(Cl)cc1Cl (stereo unspecified),100 g
